Experimental data published in patent US12435080B2, “sGC stimulators” (Tisento Therapeutics Inc., priority 2016, dated 2025).
Residue numbers refer to the chain shown, from its start. Where two headings read alike, the source gives them in different places. Blank lines part the entries; values can stand above or below the compound they belong to.

Columns and labels:
[1] = Rat cerebrospinal fluid (CSF) pharmacokinetic properties; format: in vivo; details: for concentration at 1 h: CSF, male Sprague-Dawley rats, PO 10 mg/kg in PEG400, 1 h post-dosing, read-out: CSF Conc. (nM @ 1 h); for Kp uu at 1 h: male, Sprague-Dawley, CSF and plasma (unbound), unbound CSF/unbound plasma ratio, rats, PO 10 mg/kg
Protocol: PK in rats was determined following oral dosing. For the oral (PO) experiments, a group of 6 male Sprague-Dawley rats with an indwelling catheter placed in the cisterna magna were used. The PO group was dosed with 3 or 10 mg/kg of a compound formulated as a solution in PEG400. PO doses were administered by oral gavage and delivered to the stomach using a syringe and gavage tube. Following oral dosage administration, the gavage tube was flushed with approximately 0.5 mL of water to ensure complete delivery of the full dose.
Plasma and CSF samples were collected as follows: samples of CSF and blood were collected at 1 hour and 2 hours post-dosing. CSF samples (0.05 mL) were collected through the intracisternal catheter. Blood samples (0.25 mL) were collected through retro-orbital sampling. These samples were kept on ice until processed for plasma. Blood samples were centrifuged at 3200 rpm for 5 minutes at approximately 5° C. within 1 hour of collection. Plasma was directly transferred to a 96-well plate tube (0.125 mL). Plug caps were placed on the tubes and the tubes frozen at approximately −70° C. and stored until analysis.
Plasma was collected and analyzed for the presence of compound.
The compound in question and the internal standard were extracted from plasma and CSF by precipitation. Samples were analyzed using liquid chromatography (LC) with tandem mass spectrometric detection (MS/MS) using electrospray ionization. The standard curve range was from 1 to 1000 ng/mL. Results of the compounds described herein in this assay are illustrated in Tables 4A (for compounds in Table IA) and 4B (for compounds in Table IB) below.
Kp,uu is defined as the concentration ratio of unbound drug in CSF to unbound drug in plasma. Unbound drug in plasma (or free plasma concentration) is calculated by multiplying the total plasma concentration by the unbound fraction as determined by plasma protein binding. The CSF concentration is then divided by the free plasma concentration to determine the Kp,uu. (See e.g., Di et al., J. Med. Chem., 56, 2-12 (2013))

sGC enzyme = target: T1, sGC enzyme (Homo sapiens, UniProt Q02108+Q02153); experiment: cGMP GloSensor cell-based assay, 384-well format; details: HEK293 cells expressing GloSensor 40F cGMP, 10 μM DETA-NONOate, normalized to 30 μM Compound Y
T1 construct: incorporated into these cells detect cGMP formed by the compounds stimulating the sGC enzyme; host or cells: HEK293 cells stably expressing GloSensor 40F cGMP biosensor
T1 sequence (Q02153 1-619): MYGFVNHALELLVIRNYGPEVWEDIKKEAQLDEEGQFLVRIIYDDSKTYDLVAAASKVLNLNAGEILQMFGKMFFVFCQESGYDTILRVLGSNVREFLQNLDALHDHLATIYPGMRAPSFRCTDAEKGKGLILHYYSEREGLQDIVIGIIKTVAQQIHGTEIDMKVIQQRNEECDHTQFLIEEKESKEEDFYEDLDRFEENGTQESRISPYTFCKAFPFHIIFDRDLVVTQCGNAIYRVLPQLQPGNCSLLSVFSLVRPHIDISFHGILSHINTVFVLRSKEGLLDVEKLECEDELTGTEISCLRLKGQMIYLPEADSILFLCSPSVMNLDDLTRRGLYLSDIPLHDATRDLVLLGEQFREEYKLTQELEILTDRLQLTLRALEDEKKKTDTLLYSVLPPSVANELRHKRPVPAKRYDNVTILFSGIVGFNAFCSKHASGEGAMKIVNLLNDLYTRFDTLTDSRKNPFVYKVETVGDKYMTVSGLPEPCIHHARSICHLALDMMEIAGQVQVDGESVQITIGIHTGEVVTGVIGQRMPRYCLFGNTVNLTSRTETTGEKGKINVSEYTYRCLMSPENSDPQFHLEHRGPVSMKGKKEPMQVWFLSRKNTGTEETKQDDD
T1 sequence (Q02108 1-690): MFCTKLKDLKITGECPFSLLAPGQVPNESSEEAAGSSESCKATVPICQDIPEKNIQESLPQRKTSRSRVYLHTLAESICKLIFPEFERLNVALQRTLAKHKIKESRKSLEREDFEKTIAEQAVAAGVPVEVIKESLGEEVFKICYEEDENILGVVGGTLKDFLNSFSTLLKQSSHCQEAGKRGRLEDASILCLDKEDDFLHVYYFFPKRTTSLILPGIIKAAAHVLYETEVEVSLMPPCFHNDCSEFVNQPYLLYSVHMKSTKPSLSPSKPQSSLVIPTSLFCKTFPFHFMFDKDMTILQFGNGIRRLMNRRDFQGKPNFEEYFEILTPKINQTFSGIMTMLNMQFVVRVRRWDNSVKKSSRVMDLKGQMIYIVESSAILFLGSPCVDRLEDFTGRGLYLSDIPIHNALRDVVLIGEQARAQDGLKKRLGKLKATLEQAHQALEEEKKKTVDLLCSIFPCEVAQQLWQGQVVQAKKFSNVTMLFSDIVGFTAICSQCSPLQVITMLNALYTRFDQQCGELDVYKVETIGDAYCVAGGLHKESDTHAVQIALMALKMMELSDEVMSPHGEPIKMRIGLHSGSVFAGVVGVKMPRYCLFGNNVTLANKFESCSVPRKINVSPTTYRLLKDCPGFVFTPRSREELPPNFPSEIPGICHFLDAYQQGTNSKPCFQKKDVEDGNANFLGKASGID
How it was run: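 HEK293 cells expressing GloSensor 40F cGMP luciferase biosensor, preloaded with 2 mM GloSensor substrate for 90 min at 25 °C. Endpoint luminescence read after 55 min compound incubation at room temperature.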

sGC = target: T2, sGC (Rattus norvegicus, UniProt P20595); experiment: cGMP neuronal cell-based assay; details: rat primary hippocampal neurons, 30 μM DETA-NO, cGMP by LC-MS/MS, normalized to 10 μM Compound Y
T2 construct: Rat primary neurons were isolated from fetuses of 18-day pregnant Sprague-Dawley females; endogenous in cells; host or cells: Primary rat hippocampal neurons (E18 Sprague-Dawley fetuses)
T2 sequence (P20595 1-619): T1 sequence (Q02153 1-619) with N171S, E205D, N247K, T299A, K615N, D618E, D619N
Protocol: Rat primary neurons were isolated from fetuses of 18-day pregnant Sprague-Dawley females. The fetuses were collected in Hanks' balanced salt solution (HBSS) and brains were rapidly removed. The cerebral hippocampi were isolated and mechanically fragmented. Further tissue digestion was performed with 0.25% (wt/vol) trypsin solution in HBSS without Ca2+ and Mg2+ for 15 min at 37° C. After trypsination, cells were washed and resuspended in neurobasal medium supplemented with 0.5 mM L-glutamine, 12.5 uM glutamic acid, 2% B-27 and 100U/mL penicillin, and 100 μg/mL streptomycin. Cells were plated at a density of 4×10^4 cells/well in a poly-D-lysine coated 384-well flat clear-bottom plate (Corning Cat No 354662). Cells were incubated 6-7 days at 37° C. in a humidified chamber with 5% CO2. Media was removed and cells were washed 1× with HBSS containing Ca2+ and Mg2+, and replaced with 40 uL HBSS containing 0.5 mM IBMX, and incubated for 15 minutes at 37° C. 10 uL of a 5× stock of test compounds with diethylenetriamine NONOate (DETA-NO) was added. Final concentration of DETA-NO was 30 μM. Cells were incubated for 20 min at 37° C. Medium was removed, 50 uL of ice-cold 10% acetic acid was added, and incubated for 60 minutes at 4° C. Following centrifugation at 4° C. for 5 minutes at 1000×g to pellet cell debris, the supernatant was aspirated to a clean plate and the samples were analyzed for cGMP content. cGMP concentrations were determined from each sample using LC-MS/MS.
Data were normalized to a high control using the following equation: 100*(Sample−Low Control)/(High Control−Low Control), where the low control is the average of 15 samples treated with 1% DMSO, and the high control is the average of 15 samples treated with 10 μM of the known sGC stimulator Compound Y (depicted in Example 2). Data were fit using a 4-parameter fit (log(agonist) vs. response—variable slope) using GraphPad Prism Software v.5. n=2 for all compounds. The Absolute EC50 was interpolated from the curve fit and is defined as the concentration at which a given compound elicits 50% of the high control response after data normalization. Compounds failing to elicit a minimum response of 50% are reported as >30 μM. For compounds run in duplicate or n higher than 2, the result herein given is the geometric mean of the several results obtained.

[2] = compounds in Table IA, read-out: Glo-sensor AbsEC50
[3] = compounds in Table IB, read-out: Glo-sensor Abs EC50
[4] = compounds in Table IB, read-out: sGC-Neuron Abs EC50
[5] = compounds in Table IA, read-out: sGC-neuron Abs EC50

concentration at 1 h ([1]; compounds in Table IA): 164 nM
Kp uu at 1 h ([1]; compounds in Table IA): 0.24
EC50 (sGC enzyme; [2]): < 100 nM
SMILES: Fc1cncc(Cn2nc(-c3nc(C(F)(F)F)n[nH]3)c3cccnc32)c1 [Compound I-1, 1-((5-fluoropyridin-3-yl)methyl)-3-(3-(trifluoromethyl)-1H-1,2,4-triazol-5-yl)-1H-pyrazolo[3,4-b]pyridine]

concentration at 1 h ([1]; compounds in Table IB): 30.4 nM
Kp uu at 1 h ([1]; compounds in Table IB): 1.08
EC50 (sGC enzyme; [3]): 100 to 1000 nM
SMILES: Cc1n[nH]c(-c2nc(Cc3cncnc3)c3ccccn23)n1 [Compound I-5, 3-(3-methyl-1H-1,2,4-triazol-5-yl)-1-(pyrimidin-5-ylmethyl)imidazo[1,5-a]pyridine]

EC50 (sGC enzyme; [3]): < 100 nM
EC50 (sGC; [4]): ≤ 100 nM
SMILES: FC(F)(F)c1n[nH]c(-c2nc(Cc3cncnc3)c3cc(Cl)ccn23)n1 [Compound I-6, 7-Chloro-1-(pyrimidin-5-ylmethyl)-3-(3-(trifluoromethyl)-1H-1,2,4-triazol-5-yl)imidazo[1,5-a]pyridine]

EC50 (sGC enzyme; [2]): < 100 nM
EC50 (sGC; [5]): ≤ 100 nM
SMILES: Fc1cnc2c(c1)c(-c1nc(C(F)(F)F)n[nH]1)nn2Cc1ccccc1F [Compound I-8, 5-Fluoro-1-(2-fluorobenzyl)-3-(3-(trifluoromethyl)-1H-1,2,4-triazol-5-yl)-1H-pyrazolo[3,4-b]pyridine]

EC50 (sGC enzyme; [3]): 100 to 1000 nM
EC50 (sGC; [4]): 100 to 1000 nM
SMILES: FC(F)(F)c1n[nH]c(-c2nc(CCC(F)(F)C(F)(F)F)c3ccccn23)n1 [Compound I-9]

concentration at 1 h ([1]; compounds in Table IB): 45 nM
Kp uu at 1 h ([1]; compounds in Table IB): 0.16
EC50 (sGC enzyme; [3]): < 100 nM
SMILES: Fc1ccc2c(Cc3cncnc3)nc(-c3nc(C(F)(F)F)n[nH]3)n2c1 [Compound I-12, 6-fluoro-1-(pyrimidin-5-ylmethyl)-3-(3-(trifluoromethyl)-1H-1,2,4-triazol-5-yl)imidazo[1,5-a]pyridine]

concentration at 1 h ([1]; compounds in Table IA): 207 nM
Kp uu at 1 h ([1]; compounds in Table IA): 3.37
EC50 (sGC enzyme; [2]): < 100 nM
SMILES: Fc1ccccc1Cn1nc(-c2nc(C(F)F)n[nH]2)c2cccnc21 [Compound I-20, 3-(3-(Difluoromethyl)-1H-1,2,4-triazol-5-yl)-1-(2-fluorobenzyl)-1H-pyrazolo[3,4-b]pyridine]

concentration at 1 h ([1]; compounds in Table IA): 10.8 nM
Kp uu at 1 h ([1]; compounds in Table IA): 0.52
EC50 (sGC enzyme; [2]): < 100 nM
SMILES: N#Cc1n[nH]c(-c2nn(Cc3cccc(F)c3F)c3ncccc23)n1 [Compound I-92, 5-(1-(2,3-Difluorobenzyl)-1H-pyrazolo[3,4-b]pyridin-3-yl)-1H-1,2,4-triazole-3-carbonitrile]

EC50 (sGC enzyme; [2]): 100 to 1000 nM
EC50 (sGC; [5]): ≤ 100 nM
SMILES: Fc1cccc(Cc2nn(-c3nc(C(F)F)n[nH]3)c3cccnc23)c1F [Compound I-127, 3-(2,3-Difluorobenzyl)-1-(3-(difluoromethyl)-1H-1,2,4-triazol-5-yl)-1H-pyrazolo[4,3-b]pyridine]

EC50 (sGC enzyme; [2]): > 1000 nM
SMILES: FC(F)c1n[nH]c(-n2nc(Cc3ccccc3)c3ncccc32)n1 [Compound I-129]

EC50 (sGC enzyme; [2]): < 100 nM
EC50 (sGC; [5]): ≤ 100 nM
SMILES: Fc1ccc(F)c(Cc2nn(-c3nc(C(F)(F)F)n[nH]3)c3cccnc23)c1 [Compound I-130, 3-(2,5-Difluorobenzyl)-1-(3-(trifluoromethyl)-1H-1,2,4-triazol-5-yl)-1H-pyrazolo[4,3-b]pyridine]
